Test results from patent US9695149B2, “1,2,6-substituted benzimidazoles as flap modulators” (JANSSEN PHARMACEUTICA NV, priority 2013, dated 2017).
Counter-ions that a name gives are not always drawn.

Legend:
[1] = tested on: leukotriene pathway in human whole blood; test: Human whole blood assay (LTB4, A23187-stimulated); type: cell-based; conditions: Homo sapiens, 0.5 h, human whole blood diluted 1:1 in RPMI, calcium ionophore A23187 7 μg/mL, 30 min
Method: (§1) The ability of the compounds of the present invention to treat a FLAP-mediated disease and/or disorder, or associated symptoms or complications thereof, was determined using the following procedures. Binding assay data represent the average value obtained from two different assay plates, with samples run in duplicate on each plate. Human whole blood assay data represent a single replicate on an assay plate using whole blood from at least one healthy donor.
An in vitro cellular assay was performed using human whole blood collected in heparin-containing tubes, which was used to test the ability of compounds to modulate the leukotriene pathway in human whole blood. The blood was diluted 1:1 in RPMI medium, pre-incubated for 15 min at 37° Celsius with test compounds at various concentrations, and then stimulated with calcium ionophore, A23187 (7 μg/mL), for 30 min at 37° Celsius. The samples were then centrifuged and plasma was removed. The plasma was diluted in assay buffer and LTB4 levels were measured using a commercial kit (Enzo Life Sciences). The concentration of each compound that was required for half-maximal inhibition (modulation) of […] (IC50) was calculated by a 4-parameter equation using the program GraphPad Prism (GraphPad software). For analysis, data are imported into 3DX and aggregated as the average of duplicates of the calculated ratios in order to calculate Ki and IC50 values. Numbers in parentheses are the number of runs for the assay.

[2] = biological target: human FLAP (Homo sapiens (Human), UniProt P20292); test: FLAP binding assay (HTRF format); conditions: human FLAP-containing Sf-9 membranes, wild type; average of runs
Chain of human FLAP (P20292 whole entry): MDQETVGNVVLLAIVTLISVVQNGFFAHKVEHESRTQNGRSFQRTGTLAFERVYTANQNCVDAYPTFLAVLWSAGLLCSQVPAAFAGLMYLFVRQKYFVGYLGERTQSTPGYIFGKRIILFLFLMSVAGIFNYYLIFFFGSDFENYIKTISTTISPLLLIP
Method: as §1
The assay below is used to test the modulatory activity of compounds against FLAP. Human and mouse FLAP-encoding DNA was amplified by polymerase chain reaction and cloned into pFastBac1 (Invitrogen) with a NH2-terminal 6-His tag for expression in Spodoptera frugiperda (Sf-9) cells. FLAP-containing membranes were prepared as was a FITC-labeled FLAP modulator (3-(3-(tert-butylthio)-1-(4-chlorobenzyl)-5-(quinolin-2-ylmethoxy)-1H-indol-2-yl)-2,2-dimethylpropanoic acid). The FLAP binding assay is performed in HTRF format (homogeneous time resolved fluorescence). […] The reaction is allowed to proceed for two hours after which the plate is read on an Envision plate reader in HTRF mode. Data are expressed as a HTRF ratio.
For human FLAP binding assays, data are analyzed with 3DX Explorer software. […] For analysis, data from multiple runs are averaged and each compound may be tested in 2 to 20 runs. Each run comprises two plates and each plate includes duplicates. Data from each plate is averaged and data are imported into 3DX. The data from multiple runs are aggregated as the average of duplicates of the calculated ratios in order to calculate Ki and IC50 values. Numbers in parentheses are the number of runs for the assay.

Row | IC50 [1] [µM] | Ki [2] [µM] | Structure (SMILES)
1 | 0.31 | 0.0038 | Cc1ccc(COc2ccc3nc(C4CCCC[C@H]4C(=O)O)n(Cc4cccc(N5CCCC(F)(F)C5)c4)c3c2)nc1 (mixture of isomers) [Example 222, racemic cis-2-{1-[3-(3,3-Difluoropiperidin-1-yl)benzyl]-6-[(5-methylpyridin-2-yl)methoxy]-1H-benzimidazol-2-yl}cyclohexanecarboxylic acid]
2 | 4.01 | 0.0068 | Cc1ccc(COc2ccc3nc(C4CCCC[C@H]4C(=O)O)n(Cc4cccc(Br)c4)c3c2)nc1 (mixture of isomers) [Example 228, racemic cis-2-{1-(3-Bromobenzyl)-6-[(5-methylpyridin-2-yl)methoxy]-1H-benzimidazol-2-yl}cyclohexanecarboxylic acid]
3 | 2.26 | 0.035 | Cn1ccc(COc2ccc3nc(C4CCCC[C@H]4C(=O)O)n(Cc4cc(Br)ccc4F)c3c2)n1 (mixture of isomers) [Example 233, racemic cis-2-{1-(5-Bromo-2-fluorobenzyl)-6-[(1-methyl-H-pyrazol-3-yl)methoxy]-1H-benzimidazol-2-yl}cyclohexanecarboxylic acid]
4 | 1.65 | 0.0024 | Cn1ccc(COc2cc(F)c3nc(C4CCCC[C@H]4C(=O)O)n(Cc4ccc(N5CCC(F)(F)C5)cc4)c3c2)n1 (mixture of isomers) [Example 236, racemic cis-2-{1-[4-(3,3-Difluoropyrrolidin-1-yl)benzyl]-4-fluoro-6-[(1-methyl-1H-pyrazol-3-yl)methoxy]-1H-benzimidazol-2-yl}cyclohexanecarboxylic acid]
5 | 1.81 | 0.0066 | Cn1ccc(COc2ccc3nc(C4CCCC[C@H]4C(=O)O)n(Cc4cccc(Br)c4)c3c2)n1 (single isomer, unassigned) [Example 197, (1S*,2R*)-2-{1-(3-Bromobenzyl)-6-[(1-methyl-1H-pyrazol-3-yl)methoxy]-1H-benzimidazol-2-yl}cyclohexanecarboxylic acid]
6 | > 10 | 0.07 | Cc1cnc(COc2ccc3nc(CC(C)(C)C(=O)O)n(Cc4cccc(Br)c4)c3c2)c(F)c1 [Example 191, 3-{1-(3-Bromobenzyl)-6-[(3-fluoro-5-methylpyridin-2-yl)methoxy]-1H-benzimidazol-2-yl}-2,2-dimethylpropanoic acid]
7 | 5.55 | 0.12 | Cc1cnc(COc2ccc3nc(CC(C)(C)C(=O)O)n(Cc4cc(Br)ccc4F)c3c2)c(F)c1 [Example 193, 3-{1-(5-Bromo-2-fluorobenzyl)-6-[(3-fluoro-5-methylpyridin-2-yl)methoxy]-1H-benzimidazol-2-yl}-2,2-dimethylpropanoic acid]
8 | 0.58 | 0.0057 | CCC(CC)(Cc1nc2ccc(OCc3ncc(C)cc3F)cc2n1Cc1ccc(N2CCC(C(F)(F)F)CC2)cc1)C(=O)O [Example 194, 2-Ethyl-2-[(6-[(3-fluoro-5-methylpyridin-2-yl)methoxy]-1-{4-[4-(trifluoromethyl)piperidin-1-yl]benzyl}-1H-benzimidazol-2-yl)methyl]butanoic acid]
9 | 0.84 | 0.035 | CCC(CC)(Cc1nc2ccc(OCc3ccn(C)n3)cc2n1Cc1cccc(N2CCC(F)(F)C2)c1)C(=O)O [Example 211, 2-({1-[3-(3,3-Difluoropyrrolidin-1-yl)benzyl]-6-[(1-methyl-1H-pyrazol-3-yl)methoxy]-1H-benzimidazol-2-yl}methyl)-2-ethylbutanoic acid]
10 | 1.08 | 0.09 | CCC(CC)(Cc1nc2ccc(OCc3ccn(C)n3)cc2n1Cc1cccc(N2CCCCC2)c1)C(=O)O [Example 212, 2-Ethyl-2-({6-[(1-methyl-1H-pyrazol-3-yl)methoxy]-1-(3-piperidin-1-ylbenzyl)-1H-benzimidazol-2-yl}methyl)butanoic acid]
11 | ~3.2 | 0.017 | CCC(CC)(Cc1nc2ccc(OCc3ccc(C)cn3)cc2n1Cc1ccc(N2CCC(F)(F)C2)cc1)C(=O)O [Example 226, 2-({1-[4-(3,3-Difluoropyrrolidin-1-yl)benzyl]-6-[(5-methylpyridin-2-yl)methoxy]-1H-benzimidazol-2-yl}methyl)-2-ethylbutanoic acid]
12 | > 30 | 0.073 | Cc1ccc(COc2cc(F)c3nc(CC4(C(=O)O)CCCC4)n(Cc4cccc(Br)c4)c3c2)nc1 [Example 230, 1-({1-(3-Bromobenzyl)-4-fluoro-6-[(5-methylpyridin-2-yl)methoxy]-1H-benzimidazol-2-yl}methyl)cyclopentanecarboxylic acid as the trifluoroacetic salt]
13 | > 30 | 0.18 | Cc1ccc(COc2cc(F)c3nc(CC4(C(=O)O)CCCC4)n(Cc4ccccc4Br)c3c2)nc1 [Example 231, 1-({1-(2-Bromobenzyl)-4-fluoro-6-[(5-methylpyridin-2-yl)methoxy]-1H-benzimidazol-2-yl}methyl)cyclopentanecarboxylic acid as the trifluoroacetic salt]
